Two sequences from article PMC10477861, “Efficient Mining of Anticancer Peptides from Gut Metagenome” (Advanced Science, 2023) can be followed below.

Where no end group is shown, it is not given here.

One series concerns HCT116. Put plainly: MTT primary screening of anticancer activity, HCT116. As to conditions: 25 µM pACP, 24 h, maintenance medium 1% FBS, ratio of viability to vehicle (PBS), at least three technical repetitions. Type of series: cell-based, Human. In outline:
(§1)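 Cultures grown to 60% confluence; complete medium replaced by 1% FBS maintenance medium; peptide added at 25 µM final; incubated 24 h; viability assessed by MTT.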

The subject of a further series is LCC. Briefly: MTT primary screening of anticancer activity, LCC. Type of series: cell-based. The conditions noted are these: 25 µM pACP, 24 h, maintenance medium 1% FBS, ratio of viability to vehicle (PBS), at least three technical repetitions. In outline:
as §1

A further series has as its system MDA-MB-436. Briefly: MTT primary screening of anticancer activity, MDA-MB-436. The conditions noted are these: 25 µM pACP, 24 h, maintenance medium 1% FBS, ratio of viability to vehicle (PBS), at least three technical repetitions. In kind it is cell-based. The procedure, abridged:
as §1

Series [1] relates to CT26 cells. Put plainly: Propidium iodide (PI) assay of CT26 membrane damage. Type of series: cell-based, Murine. As to conditions: pACP1780 6.23 µM, pACP2283 10.56 µM, 1, 2, 6, 12 h, PI 10 µg ml-1 45 min, ex/em 535/617 nm. As to the method: (§2) To explore the anticancer effects of pACP2283 and pACP1780 at the cellular level, we co‐cultured confluent CT26 cells with these pACPs.
Cell viability was assessed using propidium iodide (PI, ZS822‐1) according to the manufacturer's instructions. Briefly, CT26 cells were seeded in a 96‐well plate at a density of 1×10^4 cells per well. After 24 h, pACP1780 and pACP2283 were added to the wells at concentrations of 6.23 and 10.56 µM, respectively. The plate was then incubated for 1, 2, 6, and 12 h. Subsequently, the cells were cultured in medium containing 10 µg ml^−1 PI for 45 min. The fluorescence intensity was measured using a CytationTM 5 instrument (Bio Tek) with excitation/emission wavelengths of 535/617 nm.

The subject of the next series is MDA-MB-453. Briefly: MTT primary screening of anticancer activity, MDA-MB-453. Type of series: cell-based. The conditions noted are these: 25 µM pACP, 24 h, maintenance medium 1% FBS, ratio of viability to vehicle (PBS), at least three technical repetitions. The procedure, abridged: as §1
In another series the test system is MDA-MB-468. Put plainly: MTT primary screening of anticancer activity, MDA-MB-468. Type of series: cell-based. As to conditions: 25 µM pACP, 24 h, maintenance medium 1% FBS, ratio of viability to vehicle (PBS), at least three technical repetitions. The procedure, abridged: as §1
In series [2] the test system is CT26 cells. Put plainly: Transmission electron microscopy of treated CT26 cells. The conditions noted are these: 10× CC50, two hours, triplicate. Type of series: cell-based, Murine. As for the experimental part:
as §2
Experiments were performed in triplicate with similar results, and a representative figure is shown. c) CD results for the two selected ACPs and the corresponding proportions of secondary structures calculated from CD data using CDNN. Purple represents the water phase, blue represents the represents the peptide mixed with a 20‐fold POPC lipid mixture, and grey represents the peptide mixed with a 20‐fold POPC+POPS lipid mixture.
First, CT26 cancer cells were treated with peptides pACP1780 and pACP2283 for two hours. The digested CT26 cancer cells were then resuspended in double‐strength fixative, which consisted of 2% (w/v) paraformaldehyde and 2.5% (v/v) glutaraldehyde in 10 mM HEPES buffer (pH 7.0). Subsequently, the cells were incubated for 2 h at room temperature on a roller and stored at 4°C. Afterward, the fixed cells were pre‐embedded with agar, subjected to four washes with 5 mM HEPES buffer (pH 7.0) (5 min per wash), and post‐fixed with 1% osmium tetroxide (OsO4) for 30 min. Following post‐fixation, the specimens were rinsed twice with water and dehydrated using an acetone series (5 min each; 30%, 50%, 70%, 85%, 90%, 3×5 min 100%). […]

The subject of another series is T47D. Briefly: MTT primary screening of anticancer activity, T47D. In kind it is cell-based. As to conditions: 25 µM pACP, 24 h, maintenance medium 1% FBS, ratio of viability to vehicle (PBS), at least three technical repetitions. In outline: as §1
The subject of a further series is HEK293 cells. Put plainly: Toxicity to HEK293 cells (MTT). Type of series: cell-based. As to conditions: 1.5-100 µM pACP, 24 h, maintenance medium 1% FBS. As for the experimental part:
Furthermore, we investigated the safety of pACP2283 and pACP1780 both in vivo and in vitro. […] Additionally, we conducted an acute toxicity experiment in tumor‐free mice by administering pACPs with increasing concentrations into the abdomen. […] This temporary decrease in body weight growth rate may be attributed to the high concentrations of pACPs, which temporarily disturbed the mice's homeostasis.
To assess the toxicity of pACP1780 and pACP2283 at the cellular level, HEK293 cells were grown to 60% confluence in complete medium (10% FBS) for 24 h, and then treated with increasing concentrations (1.5, 3, 6, 12.5, 25, 50, and 100 µM) of each pACPs in maintenance medium (1% FBS) for 24 h. The viability of HEK293 cells was determined using the MTT Cell Proliferation and Cytotoxicity Assay Kit following the manufacturer's instructions. For acute toxicity in tumor‐free mice, the pACPs were injected into the abdomen at increasing concentrations of 2, 10, and 50 mg kg^−1 of mouse weight over three days, and the body weights were recorded throughout the process.

For the next series, the system named is Hela. Put plainly: MTT primary screening of anticancer activity, Hela. As to conditions: 25 µM pACP, 24 h, maintenance medium 1% FBS, ratio of viability to vehicle (PBS), at least three technical repetitions. In kind it is cell-based, Human. In outline: as §1
Another series relates to BT474. Put plainly: MTT primary screening of anticancer activity, BT474. As to conditions: 25 µM pACP, 24 h, maintenance medium 1% FBS, ratio of viability to vehicle (PBS), at least three technical repetitions. Type of series: cell-based. In outline: as §1
The next series relates to MDA-MB-231. Briefly: MTT primary screening of anticancer activity, MDA-MB-231. In kind it is cell-based. The conditions noted are these: 25 µM pACP, 24 h, maintenance medium 1% FBS, ratio of viability to vehicle (PBS), at least three technical repetitions. In outline: as §1
For another series, the system named is EFM192A. Put plainly: MTT primary screening of anticancer activity, EFM192A. Type of series: cell-based. As to conditions: 25 µM pACP, 24 h, maintenance medium 1% FBS, ratio of viability to vehicle (PBS), at least three technical repetitions. In outline:
as §1

As for “RRFAWIGKLQSRKVRNNIRQYRTKIVRQMRRQIFRQMKQKAE [pACP1780]”, the “Survival rate of cancer cells in primary screening” value (“Survival rate of cancer cells” for short) with HCT116 was found to be 0.29; in the series with LCC, 0.47; with MDA-MB-436, 0.00535; in the series with MDA-MB-453 it was 0.085; in the series on MDA-MB-468 it was 0.19; in the series on T47D, 0.0167. Moreover, the “Survival rate of cancer cells” value was 0.00724 in the series on Hela, 0.03 with BT474, 0.09 with MDA-MB-231 and 0.01 in the series on EFM192A. Moreover, the “PI fluorescence intensity (damaged cell membranes)” value in the series with CT26 cells [1] is “significantly increased fluorescence intensity”. The “cell membranes by transmission electron microscopy” value in the series with CT26 cells [2] is reported as “disintegrated cell membranes”. Also, the “toxicity to HEK293 cells” value in the series on HEK293 cells is “no toxicity to HEK293 cells”.
As to “WWRRAERSVRRFFGTPIGPFPEIFGRRKAHKKKIIAKFDSVNG [pACP2283]”, the “Survival rate of cancer cells” value is given as 0.0645 in the series with HCT116; 0.49 in the series on LCC; 0.00645 in the series on MDA-MB-436; 0.03 with MDA-MB-453; 0.09 with MDA-MB-468; 0.0119 in the series with T47D. Moreover, the “Survival rate of cancer cells” value in the series on Hela is 0.00225; with BT474 it was 0.02; in the series with MDA-MB-231, 0.06; with EFM192A it was 0.15. For the same sequence, the “PI fluorescence intensity (damaged cell membranes)” value in the series on CT26 cells [1] is listed as “significantly increased fluorescence intensity”. The “cell membranes by transmission electron microscopy” value in the series on CT26 cells [2] is listed as “disintegrated cell membranes”. Besides, the “toxicity to HEK293 cells” value with HEK293 cells is given as “no toxicity to HEK293 cells”.
